Where two headings read alike, the source gives them in different places.
Assays:
[1] = system: patients with HD
Method: The CAB may be used to detect symptomatic, “pro-cognitive” effects (6 months-1 year) and slowing rate of cognitive decline (>1 year). […] The CAB covers domains most impacted in HD, using tests with good psychometric properties. The following six sections describe the tests that are part of the CAB brief. • 1. Symbol Digit Modalities Test
Psychomotor function is assessed in a Paced Tapping test (also known as PTAP). Participants tap on left and right mouse buttons, alternating between thumbs, at 3.0 Hz. They first listen to a tone presented at the desired tapping rate, and then begin tapping to the tone. After 11 taps with the tone, the repetition of the tone is discontinued, and participants attempt to continue tapping at the same rate until the end of the trial (31 taps later). • 6. One Touch Stockings of Cambridge (OTS)

[2] = system: patients with HD; remark: listed apart in the source
Source text: The mPPT quantifies the patient's performance in physical tasks (Brown 2000). It is a standardized 9-item test (standing static balance, chair rise, lift a book and put it on a shelf, put on and remove a jacket, pick up a penny from floor, turn 360 degrees, 50 feet walk, climb one flight of stairs, climb stairs test (flights up and down)), that measures the patient's performance on functional tasks. Both the speed and accuracy at which the patients complete the items are taken into account during scoring. The maximum score of the test is 36, with higher scores indicating better performance. The Multiple Sclerosis Walking Scale (MSWS-12) was adapted to become a generic measure of walking and mobility and renamed the Walk-12.
The secondary efficacy variable and endpoint, the Modified Physical Performance Test (mPPT), quantifies the patient's performance in physical tasks (Brown 2000). It is a standardized 9-item test that measures the patient's performance on functional tasks. Assistive devices are permitted for the tasks that require a standing position (items 6 to 9). Both the speed and accuracy at which the patients complete the items were taken into account during scoring. The maximum score of the test is 36, with higher scores indicating better performance.

[3] = 45 mg bid, HD1 and HD2 patients, 52 weeks
[4] = 45 mg bid, full analysis set, 26 weeks
[5] = 45 mg bid, full analysis set, 52 weeks
[6] = 45 mg bid, late stage HD patients with BL TFC<7, 52 weeks
[7] = 67.5 mg bid, HD1 and HD2 patients, 52 weeks
[8] = 67.5 mg bid, full analysis set, 26 weeks
[9] = 67.5 mg bid, full analysis set, 52 weeks

**Q.** Which “Paced Tapping at 3 Hz, change from baseline” value ([1]; 45 mg bid, full analysis set, week 52) does the source give for `CCCN1CCC(c2cccc(S(C)(=O)=O)c2)CC1` [pridopidine, 4-[3-(methylsulfonyl)phenyl]-1-propyl-piperidine] here?
**A.** The value was “Positive findings indicating potential improvement from baseline”.

**Q.** And the “Δ to placebo: CAB Paced Tapping at 3 Hz, change from baseline” value ([1]; 45 mg bid, week 26)?
**A.** Its value is 0.4736.

**Q.** What about the “Δ to placebo: CAB Paced Tapping at 3 Hz, change from baseline” value ([1]; 45 mg bid, week 52) of the same compound?
**A.** The value was 1.3234.

**Q.** What about the “Δ to placebo: CAB Paced Tapping at 3 Hz, change from baseline” value ([1]; 67.5 mg bid, week 26) of the same compound?
**A.** Its value is −0.041.

**Q.** What about the “Δ to placebo: CAB Paced Tapping at 3 Hz, change from baseline” value ([1]; 67.5 mg bid, week 52) of the same compound?
**A.** Its value is 0.3701.

**Q.** What about the “Δ to placebo: CAB Paced Tapping at 3 Hz, change from baseline” value ([1]; 90 mg bid, week 26) of the same compound?
**A.** Its value is 0.1975.

**Q.** What about the “Δ to placebo: CAB Paced Tapping at 3 Hz, change from baseline” value ([1]; 90 mg bid, week 52) of the same compound?
**A.** Its value is 0.2659.

**Q.** What about the “Δ to placebo: CAB Paced Tapping at 3 Hz, change from baseline” value ([1]; 112.5 mg bid, week 26) of the same compound?
**A.** Its value is 0.9515.

**Q.** What about the “Δ to placebo: CAB Paced Tapping at 3 Hz, change from baseline” value ([1]; 112.5 mg bid, week 52) of the same compound?
**A.** The value was 0.1523.

**Q.** What about the “Change from baseline in mPPT Climb One Flight of Stairs scores, Δ to placebo” value (from here on “Change … of Stairs scores, Δ to placebo”) [2, 3] of the same compound?
**A.** Its value is 0.27.

**Q.** What about the “Change from baseline in mPPT Climb Stairs (Flights Up and Down) scores, Δ to placebo” value [2, 3] of the same compound?
**A.** The value was −0.01.

**Q.** What about the “Change … of Stairs scores, Δ to placebo” value ([2]; 45 mg bid, HD1 patients, 52 weeks) of the same compound?
**A.** Its value is −0.02.

**Q.** What about the “Change … of Stairs scores, Δ to placebo” value ([2]; 45 mg bid, HD2 patients, 52 weeks) of the same compound?
**A.** Its value is 0.35.

**Q.** What about the “Change from baseline in mPPT Climb Stairs (Flights Up and Down) scores, Δ to placebo” value [2, 4] of the same compound?
**A.** Its value is −0.03.

**Q.** And the “Δ to placebo: mPPT 50 Feet Walk scores, change from baseline” value [2, 4]?
**A.** The value was −0.02.

**Q.** And the “Δ to placebo: mPPT Chair Rise scores” value [2, 4]?
**A.** The value was 0.05.

**Q.** What about the “Δ to placebo: mPPT Climb One Flight of Stairs scores, change from baseline” value [2, 4] of the same compound?
**A.** The value was 0.08.

**Q.** And the “Δ to placebo: mPPT Lift a Book and Put it on the Shelf scores, change from baseline” value [2, 4]?
**A.** The value was 0.14.

**Q.** And the “Δ to placebo: mPPT Pick up a Penny from the Floor scores, change from baseline” value [2, 4]?
**A.** Its value is −0.13.

**Q.** And the “Δ to placebo: mPPT Put on and Remove a Jacket scores, change from baseline” value (from here on “Δ to placebo: mPPT Put … change from baseline”) [2, 4]?
**A.** The value was −0.22.

**Q.** And the “Δ to placebo: mPPT Turn 360 Degrees scores, change from baseline” value [2, 4]?
**A.** The value was 0.12.

**Q.** What about the “Δ to placebo: mPPT standing static balance scores” value [2, 4] of the same compound?
**A.** The value was 0.07.

**Q.** What about the “Change from baseline in mPPT Climb Stairs (Flights Up and Down) scores, Δ to placebo” value [2, 5] of the same compound?
**A.** Its value is 0.17.

**Q.** And the “Δ to placebo: mPPT 50 Feet Walk scores, change from baseline” value [2, 5]?
**A.** Its value is −0.03.

**Q.** What about the “Δ to placebo: mPPT Chair Rise scores” value [2, 5] of the same compound?
**A.** Its value is −0.05.

**Q.** What about the “Δ to placebo: mPPT Climb One Flight of Stairs scores, change from baseline” value [2, 5] of the same compound?
**A.** The value was 0.26.

**Q.** What about the “Δ to placebo: mPPT Lift a Book and Put it on the Shelf scores, change from baseline” value [2, 5] of the same compound?
**A.** The value was 0.25.

**Q.** What about the “Δ to placebo: mPPT Pick up a Penny from the Floor scores, change from baseline” value [2, 5] of the same compound?
**A.** The value was 0.04.

**Q.** What about the “Δ to placebo: mPPT Put … change from baseline” value [2, 5] of the same compound?
**A.** Its value is 0.2.

**Q.** And the “Δ to placebo: mPPT Turn 360 Degrees scores, change from baseline” value [2, 5]?
**A.** The value was −0.12.

**Q.** And the “Δ to placebo: mPPT standing static balance scores” value [2, 5]?
**A.** Its value is −0.15.

**Q.** What about the “Change … of Stairs scores, Δ to placebo” value ([2]; 45 mg bid, late stage HD patients with BL TFC 0-6, 52 weeks) of the same compound?
**A.** The value was 0.19.

**Q.** And the “Change from baseline in mPPT Climb Stairs (Flights Up and Down) scores, Δ to placebo” value [2, 6]?
**A.** Its value is 0.72.

**Q.** What about the “Δ to placebo: mPPT Climb One Flight of Stairs scores, change from baseline” value [2, 6] of the same compound?
**A.** Its value is 0.19.

**Q.** What about the “Change … of Stairs scores, Δ to placebo” value [2, 7] of the same compound?
**A.** The value was 0.3.

**Q.** What about the “Change from baseline in mPPT Climb Stairs (Flights Up and Down) scores, Δ to placebo” value [2, 7] of the same compound?
**A.** The value was 0.01.

**Q.** What about the “Change … of Stairs scores, Δ to placebo” value ([2]; 67.5 mg bid, HD1 patients, 52 weeks) of the same compound?
**A.** Its value is 0.01.

**Q.** And the “Change … of Stairs scores, Δ to placebo” value ([2]; 67.5 mg bid, HD2 patients, 52 weeks)?
**A.** The value was 0.34.

**Q.** What about the “Change from baseline in mPPT Climb Stairs (Flights Up and Down) scores, Δ to placebo” value [2, 8] of the same compound?
**A.** The value was −0.14.

**Q.** And the “Δ to placebo: mPPT 50 Feet Walk scores, change from baseline” value [2, 8]?
**A.** The value was 0.

**Q.** What about the “Δ to placebo: mPPT Chair Rise scores” value [2, 8] of the same compound?
**A.** Its value is 0.01.

**Q.** And the “Δ to placebo: mPPT Climb One Flight of Stairs scores, change from baseline” value [2, 8]?
**A.** The value was 0.11.

**Q.** What about the “Δ to placebo: mPPT Lift a Book and Put it on the Shelf scores, change from baseline” value [2, 8] of the same compound?
**A.** The value was 0.1.

**Q.** And the “Δ to placebo: mPPT Pick up a Penny from the Floor scores, change from baseline” value [2, 8]?
**A.** The value was 0.14.

**Q.** What about the “Δ to placebo: mPPT Put … change from baseline” value [2, 8] of the same compound?
**A.** The value was 0.17.

**Q.** What about the “Δ to placebo: mPPT Turn 360 Degrees scores, change from baseline” value [2, 8] of the same compound?
**A.** The value was −0.06.

**Q.** What about the “Δ to placebo: mPPT standing static balance scores” value [2, 8] of the same compound?
**A.** The value was −0.2.

**Q.** What about the “Change from baseline in mPPT Climb Stairs (Flights Up and Down) scores, Δ to placebo” value [2, 9] of the same compound?
**A.** The value was 0.04.

**Q.** What about the “Δ to placebo: mPPT 50 Feet Walk scores, change from baseline” value [2, 9] of the same compound?
**A.** Its value is 0.15.

**Q.** And the “Δ to placebo: mPPT Chair Rise scores” value [2, 9]?
**A.** Its value is −0.1.

**Q.** And the “Δ to placebo: mPPT Climb One Flight of Stairs scores, change from baseline” value [2, 9]?
**A.** The value was 0.13.

**Q.** What about the “Δ to placebo: mPPT Lift a Book and Put it on the Shelf scores, change from baseline” value [2, 9] of the same compound?
**A.** Its value is 0.17.

**Q.** What about the “Δ to placebo: mPPT Pick up a Penny from the Floor scores, change from baseline” value [2, 9] of the same compound?
**A.** Its value is 0.09.

**Q.** What about the “Δ to placebo: mPPT Put … change from baseline” value [2, 9] of the same compound?
**A.** The value was 0.21.

From patent US11207310B2 (PRILENIA NEUROTHERAPEUTICS LTD., priority 2016, dated 2021)
